# How the values were obtained:
# [1] = biological target: T1, DNA polymerase α (Homo sapiens, UniProt P09884); settings: incorporated 5'-monophosphate; cited from earlier work
# T1 sequence (P09884 1-1462): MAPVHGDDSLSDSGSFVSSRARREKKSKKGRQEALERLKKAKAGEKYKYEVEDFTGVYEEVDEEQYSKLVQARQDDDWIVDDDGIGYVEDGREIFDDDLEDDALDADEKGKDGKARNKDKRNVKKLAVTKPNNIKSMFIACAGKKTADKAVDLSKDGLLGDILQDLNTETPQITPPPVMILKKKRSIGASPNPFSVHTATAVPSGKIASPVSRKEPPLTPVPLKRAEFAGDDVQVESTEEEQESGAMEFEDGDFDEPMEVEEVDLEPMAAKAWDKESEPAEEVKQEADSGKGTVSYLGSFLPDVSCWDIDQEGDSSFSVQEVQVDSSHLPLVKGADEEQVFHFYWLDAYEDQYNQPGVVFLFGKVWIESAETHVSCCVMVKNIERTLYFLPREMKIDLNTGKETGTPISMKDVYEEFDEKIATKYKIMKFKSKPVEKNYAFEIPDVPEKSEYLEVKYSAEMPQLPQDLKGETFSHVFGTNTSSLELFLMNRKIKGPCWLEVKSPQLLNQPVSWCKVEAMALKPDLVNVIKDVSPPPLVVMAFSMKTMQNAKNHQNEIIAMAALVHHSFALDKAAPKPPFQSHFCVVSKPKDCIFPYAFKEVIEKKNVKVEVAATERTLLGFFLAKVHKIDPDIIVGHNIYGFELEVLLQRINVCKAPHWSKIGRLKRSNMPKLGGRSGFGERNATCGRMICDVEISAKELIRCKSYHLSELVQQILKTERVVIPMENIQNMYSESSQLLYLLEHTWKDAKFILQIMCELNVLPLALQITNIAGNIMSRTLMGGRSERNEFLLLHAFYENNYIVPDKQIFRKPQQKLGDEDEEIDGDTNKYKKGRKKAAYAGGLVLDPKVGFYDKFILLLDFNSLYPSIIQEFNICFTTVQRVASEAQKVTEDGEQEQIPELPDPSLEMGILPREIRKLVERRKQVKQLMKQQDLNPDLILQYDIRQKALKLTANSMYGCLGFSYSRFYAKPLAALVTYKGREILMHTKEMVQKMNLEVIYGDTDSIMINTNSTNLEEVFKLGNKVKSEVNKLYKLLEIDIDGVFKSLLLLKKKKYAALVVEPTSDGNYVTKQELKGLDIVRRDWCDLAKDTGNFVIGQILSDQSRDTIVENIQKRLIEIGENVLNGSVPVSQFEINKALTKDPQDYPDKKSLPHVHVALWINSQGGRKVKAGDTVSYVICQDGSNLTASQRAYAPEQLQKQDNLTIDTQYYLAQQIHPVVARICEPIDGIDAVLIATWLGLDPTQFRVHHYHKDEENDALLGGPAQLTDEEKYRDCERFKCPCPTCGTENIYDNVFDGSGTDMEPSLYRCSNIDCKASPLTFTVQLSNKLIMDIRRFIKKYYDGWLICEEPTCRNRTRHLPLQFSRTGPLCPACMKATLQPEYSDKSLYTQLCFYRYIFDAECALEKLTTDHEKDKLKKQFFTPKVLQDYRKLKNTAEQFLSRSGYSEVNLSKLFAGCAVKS
# [2] = system: HIV (strain IIIB); assay: Activity against HIV in cell culture; assay type: cell-based; settings: CEM or MT cell lines in culture
Compound,inhibition of further elongation of the DNA chain after incorporation by DNA polymerase α [1],activity against HIV (strain IIIB) [2]
Nc1nc(Cl)nc2c1ncn2[C@H]1C[C@H](O)[C@@H](COP(=O)(O)O)O1 [2-chloro-2'-deoxyadenosine 5'monophosphate],did not inhibit the further elongation of the DNA chain to the degree that was seen with the incorporation of either,
"Nc1nc(F)nc2c1ncn2[C@@H]1O[C@H](CO)C[C@@H]1F [compound 4b, 2-Fluoro-9-(2-3-dideoxy-2-fluoro-β-D-arabinofuranosyl)-9H-purin-6-amine]",,slight activity

# — patent US5661136A, “2-halo-2'-fluoro ARA adenosines as antinoplastic agents” (priority 1994, dated 1997)
